Experimental findings from patent publication US20230272009A1, “Peptide, Peptide Salt, Pharmaceutical Composition and Biological Tissue Calcification Inhibitor” (Hiroshima University, priority 2020, published 2023) are described below.

Square brackets hold non-standard residues; d marks the D form. Ends that are not written are not given here. pS = N[C@@H](COP(=O)(O)O)C(=O)O

The test system of data set [1] is mouse osteoblast strain MC3T3-E1. Put plainly: Examination of in vitro calcification inhibitory activity (von Kossa staining of matrix calcification). The data set is classed as cell-based. The note with it: relative to Comparative Example 2 set at 100, MC3T3-E1, 3 mM βGP, 24 hours. The protocol: A mouse osteoblast strain MC3T3-E1 was cultured in a bone differentiation medium (α MEM (Eagle’s minimum essential medium, alpha modification) + 50 µg/mL ascorbic acid, 10% fetal calf serum) to form osteoid-like nodules. In order to induce calcification, 3 mM β-glycerophosphoric acid (hereinafter, “βGP”) was added together with a test substance to the medium. The strain was cultured for 24 hours after the addition of the test substance, and cells were washed with PBS, immobilized with 10% neutral buffered formalin, and then subjected to von Kossa staining. The matrix calcification was evaluated by measurement of calcium spots stained with von Kossa in the extracellular matrices of alkaline phosphatase (ALP)-stained positive cells, which were osteoblastic markers, with a stereoscopic microscope.

Another data set relates to caALK2Q207D mice. Put plainly: Evaluation of drug efficacy in FOP model (µCT of leg region). To be noted: Ad-Cre intramuscular, intraperitoneal 0.03 mg/mouse/day, day 6. Format: in vivo. The method, then: Cre recombinase recombinant adenovirus (Ad-Cre, manufactured by Vector Biolabs) was intramuscularly administered (2 × 10^7 pfu) to the crural muscles (triceps muscles) of 7-day-old caALK2Q207D mice (Paul B Yu and the 14 others, “BMP type I receptor inhibition reduces heterotopic ossification” Nat Med, 2008, 14(12), 1363-1369). Next day, Example 5 was intraperitoneally administered (0.03 mg/mouse/day). On day 6, the leg region was immobilized with 4% para-formaldehyde PBS, and µCT images were acquired.

A short description of data set [2]: Evaluation of stability: residual rate in PBS by HPLC. The data set is classed as physicochemical. The note with it: 37° C., 7 days or 14 days, HPLC peak area, sample before use set at 100. The method, then:
(§1) The amount of 1/20 to 1/25 of Comparative Example 2 or Example 5 (each 100 mM) was added to PBS or C57BL/6 mouse serum, and incubated at 37° C. for 7 days or 14 days. In measurement using the serum, 4 M perchloric acid (PCA) of which the amount was equal to the amount of a sample was added, and the resultant was diluted to 2-fold with MQ water and left to stand on ice for 5 minutes. The supernatant obtained by centrifugation for 2 minutes was subjected to HPLC (ODS column and 0.1% TFA/ acetonitrile). The residual rates of the test substances were calculated in a case in which the peak area of a sample adjusted before use was set at 100.

In data set [3] the test system is Enpp1 mutated mice (C57BL/6J-Enpp1asj/asj). Put plainly: Evaluation of drug efficacy in GACI model (aortic calcification score). The data set is classed as in vivo, mouse. To be noted: high phosphorus diet, continuous intravenous administration for 2 weeks by osmotic pump. The source says:
The biallelic mutation of an Enpp1 gene is observed at 75% of GACI. Thus, the drug efficacy of the peptide was examined using Enpp1 mutated mice. Fertilized eggs from the Enpp1 mutated mice (C57BL/6J-Enpp1^asj/asj) were transplanted into ICR mice, and bred with a high phosphorus diet (AIN-93G-based, 0.4% Ca, 0.85% P, 0.04% Mg) immediately after deliveries. Male Enpp1^asj mice were weaned from the mothers 4 weeks after the births, and fed with a high phosphorus diet during an experimental period. […] A catheter was indwelled in the right cervical vein 6 to 7 weeks after the birth, and Example 5 was continuously administered for 2 weeks by an osmotic pump (manufactured by Altez). The thoracic (ventral) aorta was harvested, then immobilized with 4% para-formaldehyde PBS, washed, and then stained with alizarin red 0.5% KOH. The tissue was washed, and then preserved in 70% EtOH. For the obtained tissue, the calcification of the alizarin red-positive region of the thoracic aorta was scored (maximum value of 3) under the stereoscopic microscope.

The next data set relates to thoracic aorta. Nature of the data set: Calcification of cultured thoracic aorta rings under high phosphate load (headed 'in vivo calcification inhibitory activity'). Format: cell-based, C57BL/6 mouse. The note with it: for Calcification of thoracic aorta tissue (alizarin red staining): versus PBS solvent. The method, then: The thoracic aorta was harvested from a C57BL/6 mouse (10-week-old male), and then cut into ring-shaped portions (2 to 3 mm), which were cultured in 10% FCS DMEM (Dulbecco’s Moodified Eagle’s Medium, high glucose). From the next day, the peptides were added, and the resultants were loaded together with phosphoric acid having a high concentration (sodium phosphate, final concentration of 3 mM), and cultured for 10 days. The tissues immobilized with PFA were stained with alizarin red, and the vessel walls were incised and opened, and observed with a stereoscopic microscope. Moreover, the contents of calcium in liquid extracts obtained by decalcifying the vessels, cultured in a similar manner, with 10% formic acid for 24 hours were measured using a calcium quantification kit (Calcium C-test Wako, manufactured by Wako Pure Chemical Industries, Ltd.).

Data set [4] in a line: Evaluation of stability: residual rate in mouse serum by HPLC. The note with it: C57BL/6 mouse serum, 37° C., 7 days or 14 days. Format: in vitro ADME. The method, then: as §1
A further data set has as its system ddY mice. Put plainly: Evaluation of safety, influence on osteogenesis (4-week continuous intravenous administration). The data set is classed as in vivo, mouse. The note with it: 4 weeks. The protocol:
Thus, toxicity, particularly an influence on osteogenesis was examined using Comparative Example 2, as described below.
Catheters were indwelled in the jugular veins of 6-week-old ddY mice, and Comparative Example 2 was continuously administered at a high dose (1 mg/mouse/day) or low dose (0.1 mg/mouse/day) for 4 weeks using an osmotic pump (manufactured by Alzert). The low dose is 10 or more times as much as an effective drug efficacy concentration. Evaluation items were set to a body weight, the amount of intake of a food and drink, blood biochemistry (including calcium and phosphoric acid), the weights of principal organs, and histopathology. Moreover, bone structures were evaluated by µCT, and bone strengths were evaluated in a three-point bending test.

Where [5] appears, read: aorta rings, sodium phosphate 3 mM, cultured 10 days.

Consider “SSESSESGSSSESD (SEQ ID NO:9) (SSESSESG[pS]S[pS]E[pS]D) [Example 3]”, for which, in data set [1], the “Calcification inhibitory activity (relative)” value is given as 200<.

As for “Ac-SSESSESGSSSESD(C)-NH2 (N-Ac/chloroacetyl thioether cyclised, added C-terminal Cys amide; Phosphopeptide; MOD_RES (9)..(9) PHOSPHORYLATION; MOD_RES (11)..(11) PHOSPHORYLATION; MOD_RES (13)..(13) PHOSPHORYLATION) [Example 5]”, in the data set with caALK2Q207D mice, the “Calcification in leg region (µCT images)” value was “no calcification was confirmed”. In addition, the “Residual rate in PBS” value in data set [2] is given as “not decreased”. In addition, the “Calcification inhibitory activity (relative)” value in data set [1] was 500-1000<. Moreover, the “Vascular calcification (calcification score of thoracic aorta, maximum value of 3)” value in data set [3] is listed as “inhibited”. Moreover, in the data set on thoracic aorta (aorta rings loaded with phosphoric acid (Pi), decalcified with 10% formic acid, compared with Comparative Example 2), the “Calcium content per protein” value is listed as “less than that in Comparative Example 2”. In the data set with thoracic aorta (setting [5]), the “Calcification inhibitory effect compared with Comparative Example 2 (alizarin red staining)” value was “superior to that in Comparative Example 2” and the “Calcification of thoracic aorta tissue (alizarin red staining)” value was “calcification was inhibited”. In data set [4], the “Residual rate in mouse serum” value is “inhibited in comparison with Comparative Example 2”.

With “RDDSSESSDSGSSSESDGD (SEQ ID NO:10) (ASARM peptide) [Comparative Example 1, reference compound]”, the “Calcification inhibitory activity (relative)” value in data set [1] is recorded as 0.

With “RDDSSESSDSGSSSESDGD (SEQ ID NO:11) (RDDSSESSDSG[pS]S[pS]E[pS]DGD) [Comparative Example 2, reference compound]”, the “Abnormal findings in body weight, intake of food and drink, blood biochemistry, weights of principal organs, histopathology” value in the data set on ddY mice (1 mg/mouse/day or 0.1 mg/mouse/day continuous intravenous) is on record as “Any abnormal findings were not observed”. In addition, the “Bone volume (BV), bone mineral content (BMC), bone mineral density (BMD), bone strength (maximum load) versus PBS” value with ddY mice (high and low doses, µCT and three-point bending test) was “no significant differences”. Besides, the “Residual rate in PBS” value in data set [2] is reported as “decreased over time”. The “Calcification inhibitory activity (relative)” value in data set [1] is on record as 100. For the same substance, the “Calcification of thoracic aorta tissue (alizarin red staining)” value with thoracic aorta (setting [5]) is “calcification was inhibited”.

For the substance “SSESSESGSSSESD (SEQ ID NO:13) (SSESSESGSS[pS]E[pS]D) [Example 4]”, the “Calcification inhibitory activity (relative)” value in data set [1] is reported as 110<.

For “DDSSESSDSGSSSESD (SEQ ID NO:12) (DDSSESSDSG[pS]S[pS]E[pS]D) [Example 1]”, the “Calcification inhibitory activity (relative)” value in data set [1] turned out to be 100.

Regarding “SSESSDSGSSSESD (SEQ ID NO:8) (SSESSDSG[pS]S[pS]E[pS]D) [Example 2]”, the “Calcification inhibitory activity (relative)” value in data set [1] stood at 100.
